The text below walks through data of US11186564B2, “Dual NAV1.2/5HT2a inhibitors for treating CNS disorders” (Sunovion Pharmaceuticals Inc., priority 2016, dated 2021).

Experiment [1] concerns the target T1, recombinant human serotonin receptor 5-HT2A (Homo sapiens, UniProt P28223).
T1 construct: expressed in transfected cells; method B: loaded with Ca2+ dye
The experiment can be described thus: 5-HT2A antagonist Ca2+ assay in CHO-K1 cells (method A aequorin luminescence / method B FLIPR fluorescence). The class given is cell-based. The following applies: antagonist mode vs EC80 of reference agonist, method A or B, read-out: 5HT2A IC50. The essentials: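 IC50 was obtained by nonlinear regression of percent inhibition of the EC80 agonist Ca2+ response in CHO-K1 cells stably expressing human 5-HT2A. The readout was aequorin luminescence with agonist injected 15 min after compound (A), or Ca2+-dye fluorescence on FLIPR with serotonin as agonist (B).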

Experiment [2] concerns the target human sodium channel NaV1.2 (Homo sapiens, UniProt Q99250). The experiment can be described thus: NaV1.2 inhibition, automated patch-clamp (Q-Patch HTX), slow inactivated state (state C). The class given is cell-based. The following applies: hNaV1.2 CHO cells, slow inactivated state; for inhibition at 10 µM: 10 μM compound, read-out: NaV1.2 (% inh), 10 μM; for IC50: read-out: NaV1.2 IC50; for inhibition at 1 µM: 1 μM compound, read-out: NaV1.2 (% inh), 1 μM. From the text: In vitro method for NaV1.2 inhibition assays: The methods utilized to assess the inhibitory activity of compounds on NaV1.2 were based on the methods described by Liu et al. [Liu Y, Beck E J, & Flores C M (2011): Validation of a patch clamp screening protocol that simultaneously measures compound activity in multiple states of the voltage-gated sodium channel Nav1.2. Assay Drug Development Technology 9, 628-634]. For these electrophysiology assays, a cell line (Chinese Hamster Ovarian K-1 cells (CHO K-1)) engineered to stably express human sodium channel NaV1.2 was purchased from Millipore Corporation (catalog no. CYL3023). The electrophysiology measurements were performed using automated patch-clamp methods on a Q-Patch HTX instrument by scientists at Evotec AG under contract with Sunovion.
The solutions utilized for the Qpatch experiments were similar buffered solutions to those described by Liu et al. [Liu Y, Beck E J, & Flores C M (2011)]. The extracellular solution contained 140 millimolar sodium chloride, 4 millimolar potassium chloride, 2 millimolar calcium chloride, 1 millimolar magnesium chloride, 10 millimolar 4-(2-hydroxyethyl)-1-piperazineethanesulfonic acid (HEPES), and 10 millimolar glucose (pH adjusted to 7.4 with sodium hydroxide). The intracellular solution contained 100 millimolar cesium fluoride, 45 millimolar cesium chloride, 10 millimolar HEPES, 5 millimolar ethylene glycol tetraacetic acid (EGTA), and 5 millimolar glucose (pH adjusted to 7.2 with cesium hydroxide).
The biophysical experiments of Lui et al. [Liu Y, Beck E J, & Flores C M (2011)] were replicated to assess the fast, slow and total inactivation characteristics of the human Nav1.2 channel
Based upon results from studies of the fast, slow and total inactivation characteristics of the human Nav1.2 channel, a voltage protocol involving a sequence of consecutive pulses of current was used to measure channel activity in several states [Liu Y, Beck E J, & Flores C M (2011)]. The monolayer of CHO K-1 cells stably expressing human sodium channel NaV1.2 (hNaV1.2 CHO cells) was maintained in the Qpatch instrument at a potential of −100 millivolts (mV) except when the voltage protocol was being executed. The first pulse in the protocol involved a 100 millisecond depolarization to 0 mV to enable measurement of channel availability in the closed state (state A). The potential was then maintained at −90 mV for 15 milliseconds, followed by a five millisecond period of depolarization to 0 mV to enable measurement of channel availability after partial recovery from fast inactivation (state B). Next, the potential was maintained at −90 mV for 300 milliseconds, followed by ten seconds at −50 mV, 15 milliseconds at −90 mV, and finally another five millisecond period of depolarization to 0 mV to enable measurement of channel availability after additional recovery from fast inactivation and significant entry into the slow inactivated state (state C). Finally, after an additional 300 millisecond period at −90 mV, another five millisecond period of depolarization to 0 mV was employed to enable measurement of channel availability after partial recovery from the slow inactivated state (state D). Measurements of activity at state C were used to assess the activity of the NaV1.2 channel in the slow inactivated state. Comparison of activity after addition of test compounds or reference compounds with activity after addition of vehicle only provided a measure of percent remaining activity from which percent inhibition was calculated. […] A slight modification of this protocol was utilized to provide measurements as a function of compound concentration, which enabled IC50 values to be determined. IC50 values were calculated by non-linear least squares regression of the data (percent inhibition of ion channel NaV1.2 activity in the slow inactivated state) onto equation (1): % inhibition=100%/(1+(IC50/[compound]) equation (1)
J Pharmacol Exp Ther. 2008 July; 326(1):89-99.].

Chain of human sodium channel NaV1.2 (Q99250 whole entry): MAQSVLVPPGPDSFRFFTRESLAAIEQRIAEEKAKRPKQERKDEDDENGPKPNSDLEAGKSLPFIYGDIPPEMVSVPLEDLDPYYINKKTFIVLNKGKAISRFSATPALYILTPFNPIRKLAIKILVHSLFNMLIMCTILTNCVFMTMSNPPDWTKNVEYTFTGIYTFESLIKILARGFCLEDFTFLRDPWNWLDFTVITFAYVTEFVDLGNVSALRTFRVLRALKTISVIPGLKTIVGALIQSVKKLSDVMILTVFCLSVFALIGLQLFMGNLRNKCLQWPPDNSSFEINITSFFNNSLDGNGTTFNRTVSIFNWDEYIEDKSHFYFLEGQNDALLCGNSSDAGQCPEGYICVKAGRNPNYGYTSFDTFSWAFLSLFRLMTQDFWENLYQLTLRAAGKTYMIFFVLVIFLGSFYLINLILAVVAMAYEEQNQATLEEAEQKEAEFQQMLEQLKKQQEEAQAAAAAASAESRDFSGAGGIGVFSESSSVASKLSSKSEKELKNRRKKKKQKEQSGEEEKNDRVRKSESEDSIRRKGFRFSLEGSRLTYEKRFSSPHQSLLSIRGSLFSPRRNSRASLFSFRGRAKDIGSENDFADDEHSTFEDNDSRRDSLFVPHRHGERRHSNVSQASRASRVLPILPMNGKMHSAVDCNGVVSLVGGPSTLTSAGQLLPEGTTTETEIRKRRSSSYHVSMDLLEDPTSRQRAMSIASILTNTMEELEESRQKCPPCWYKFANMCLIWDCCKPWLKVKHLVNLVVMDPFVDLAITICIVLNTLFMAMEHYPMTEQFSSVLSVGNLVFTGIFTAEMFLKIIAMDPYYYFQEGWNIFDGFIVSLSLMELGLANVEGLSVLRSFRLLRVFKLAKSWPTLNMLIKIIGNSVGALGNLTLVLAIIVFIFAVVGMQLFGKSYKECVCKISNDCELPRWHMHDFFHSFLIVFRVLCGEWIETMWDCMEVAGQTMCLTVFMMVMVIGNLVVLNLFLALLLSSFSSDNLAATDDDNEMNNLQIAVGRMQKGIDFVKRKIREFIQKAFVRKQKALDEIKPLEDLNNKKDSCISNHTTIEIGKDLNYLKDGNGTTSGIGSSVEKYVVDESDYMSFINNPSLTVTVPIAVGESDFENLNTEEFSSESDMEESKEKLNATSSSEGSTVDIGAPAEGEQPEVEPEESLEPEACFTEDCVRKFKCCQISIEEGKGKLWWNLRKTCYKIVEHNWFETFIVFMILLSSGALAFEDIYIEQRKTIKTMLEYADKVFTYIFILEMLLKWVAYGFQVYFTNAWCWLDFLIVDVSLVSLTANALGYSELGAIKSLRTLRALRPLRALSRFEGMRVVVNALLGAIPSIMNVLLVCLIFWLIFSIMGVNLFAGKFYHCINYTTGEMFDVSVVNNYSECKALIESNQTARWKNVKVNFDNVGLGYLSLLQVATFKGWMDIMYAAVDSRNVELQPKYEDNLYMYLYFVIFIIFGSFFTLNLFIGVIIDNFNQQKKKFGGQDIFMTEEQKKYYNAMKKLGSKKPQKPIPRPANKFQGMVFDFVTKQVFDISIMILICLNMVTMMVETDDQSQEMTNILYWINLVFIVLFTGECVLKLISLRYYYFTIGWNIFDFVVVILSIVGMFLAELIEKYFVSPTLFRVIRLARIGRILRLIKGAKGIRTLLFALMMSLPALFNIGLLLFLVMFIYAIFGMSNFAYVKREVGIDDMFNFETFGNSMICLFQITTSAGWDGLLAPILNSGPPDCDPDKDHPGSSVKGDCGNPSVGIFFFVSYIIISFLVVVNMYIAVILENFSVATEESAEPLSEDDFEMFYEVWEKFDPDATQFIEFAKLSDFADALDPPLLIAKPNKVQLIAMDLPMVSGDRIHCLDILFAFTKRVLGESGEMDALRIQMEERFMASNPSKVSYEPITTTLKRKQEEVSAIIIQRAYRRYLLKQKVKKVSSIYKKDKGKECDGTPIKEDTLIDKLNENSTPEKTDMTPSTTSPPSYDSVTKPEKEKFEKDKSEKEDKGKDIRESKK
T1 sequence (P28223 whole entry): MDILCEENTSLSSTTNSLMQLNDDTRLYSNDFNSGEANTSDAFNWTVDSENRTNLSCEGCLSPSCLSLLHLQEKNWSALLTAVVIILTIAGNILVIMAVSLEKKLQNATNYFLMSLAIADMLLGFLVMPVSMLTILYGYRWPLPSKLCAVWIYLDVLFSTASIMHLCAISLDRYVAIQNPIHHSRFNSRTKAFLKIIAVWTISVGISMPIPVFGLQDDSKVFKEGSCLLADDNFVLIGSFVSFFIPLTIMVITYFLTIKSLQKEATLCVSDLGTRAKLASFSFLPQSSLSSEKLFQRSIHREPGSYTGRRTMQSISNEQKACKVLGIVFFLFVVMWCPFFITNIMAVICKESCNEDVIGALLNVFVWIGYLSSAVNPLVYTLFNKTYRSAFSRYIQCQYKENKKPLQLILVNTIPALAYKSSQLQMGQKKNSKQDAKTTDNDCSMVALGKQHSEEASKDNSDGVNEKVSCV

A word on the IC50: it is the concentration that gives 50% inhibition. For `O=C1c2ccccc2CCN1CCN1CC[C@@H](Oc2ccc(F)cc2)C1` [Example 25, (R)-2-(2-(3-(4-fluorophenoxy)pyrrolidin-1-yl)ethyl)-3,4-dihydroisoquinolin-1(2H)-one], in experiment [1], the IC50 was found to be 170 nM. Moreover, the inhibition at 10 µM in experiment [2] came to 83%.

Take `O=C1c2ccccc2CCN1CCN1CC[C@H](Oc2ccc(F)cc2)C1` [Example 26, (S)-2-(2-(3-(4-fluorophenoxy)pyrrolidin-1-yl)ethyl)-3,4-dihydroisoquinolin-1(2H)-one]: in experiment [1], the IC50 turned out to be 170 nM. Besides, the inhibition at 10 µM in experiment [2] was 70%.

Regarding `OC(CO[C@@H]1CCc2ccccc21)CN1CC[C@@H](Oc2cccc(F)c2)C1` (stereo partly drawn) [Example 36, 1-(((R)-2,3-dihydro-1H-inden-1-yl)oxy)-3-((R)-3-(3-fluorophenoxy)pyrrolidin-1-yl)propan-2-ol], the IC50 in experiment [1] came to 1760 nM; in experiment [2] it was 250 nM.

For the compound `OC(CO[C@H]1CCc2ccccc21)CN1CC[C@@H](Oc2ccc(F)cc2)C1` (stereo partly drawn) [Example 42, 1-(((S)-2,3-dihydro-1H-inden-1-yl)oxy)-3-((R)-3-(4-fluorophenoxy)pyrrolidin-1-yl)propan-2-ol], the IC50 worked out at 830 nM in experiment [1] and 750 nM in experiment [2].

`OC(CO[C@@H]1CCc2ccccc21)CN1CC[C@@H](Oc2ccc(F)cc2)C1` (stereo partly drawn) [Example 44, 1-(((R)-2,3-dihydro-1H-inden-1-yl)oxy)-3-((R)-3-(4-fluorophenoxy)pyrrolidin-1-yl)propan-2-ol]: the results for the IC50 in experiment [1] and in experiment [2] were 140 nM and 240 nM, respectively.

As to `OC(CO[C@@H]1CCc2ccccc21)CN1CC[C@H](Oc2ccc(F)cc2)C1` (stereo partly drawn) [Example 45, 1-(((R)-2,3-dihydro-1H-inden-1-yl)oxy)-3-((S)-3-(4-fluorophenoxy)pyrrolidin-1-yl)propan-2-ol], in experiment [1], the IC50 was 610 nM. For the same compound, in experiment [2], the inhibition at 10 µM is 85%.

Consider `O[C@H](CO[C@@H]1CCc2ccccc21)CN1CC[C@@H](Oc2ccc(F)cc2)C1` [Example 46, (S)-1-(((R)-2,3-dihydro-1H-inden-1-yl)oxy)-3-((R)-3-(4-fluorophenoxy)pyrrolidin-1-yl)propan-2-ol], for which, in experiment [1], the IC50 is 30 nM. In experiment [2], the inhibition at 1 µM stood at 41%.

Consider `O[C@@H](CO[C@@H]1CCc2ccccc21)CN1CC[C@@H](Oc2ccc(F)cc2)C1` [Example 47, (R)-1-(((R)-2,3-dihydro-1H-inden-1-yl)oxy)-3-((R)-3-(4-fluorophenoxy)pyrrolidin-1-yl)propan-2-ol], for which the IC50 in experiment [1] turned out to be 100 nM; in experiment [2] it was 360 nM.

On to `OC(CO[C@@H]1CCCc2ccccc21)CN1CC[C@@H](Oc2ccc(F)cc2)C1` (stereo partly drawn) [Example 50, 1-((R)-3-(4-fluorophenoxy)pyrrolidin-1-yl)-3-(((R)-1,2,3,4-tetrahydronaphthalen-1-yl)oxy)propan-2-ol], for which the IC50 in experiment [1] is 60 nM; in experiment [2], 1290 nM.

Consider `O[C@H](CO[C@@H]1CCCc2ccccc21)CN1CC[C@@H](Oc2ccc(F)cc2)C1` [Example 52, (S)-1-((R)-3-(4-fluorophenoxy)pyrrolidin-1-yl)-3-(((R)-1,2,3,4-tetrahydronaphthalen-1-yl)oxy)propan-2-ol], for which the values for the half-inhibitory concentration (IC50) in experiment [1] and in experiment [2] were 140 nM and 1690 nM, respectively.

Turning to `O[C@@H](CO[C@@H]1CCCc2ccccc21)CN1CC[C@@H](Oc2ccc(F)cc2)C1` [Example 53, (R)-1-((R)-3-(4-fluorophenoxy)pyrrolidin-1-yl)-3-(((R)-1,2,3,4-tetrahydronaphthalen-1-yl)oxy)propan-2-ol], the IC50 in experiment [1] came out at 230 nM; in experiment [2], 1930 nM.

Consider `c1ccc(N2CCN(CC3CCc4ccccc43)CC2)cc1` (centres unmarked) [Example 55, 1-((2,3-dihydro-1H-inden-1-yl)methyl)-4-phenylpiperazine], for which the half-maximal inhibitory concentration (IC50) in experiment [1] is 10 nM; in experiment [2] it was 4120 nM.

Consider `Cc1cccc(N2CCN(CC3(O)COCc4ccccc43)CC2)c1C` (centres unmarked) [Example 56, 4-((4-(2,3-dimethylphenyl)piperazin-1-yl)methyl)isochroman-4-ol], for which the concentration for half-maximal inhibition (IC50) was 130 nM in experiment [1] and 430 nM in experiment [2].

In the case of `Cc1cccc(N2CCN(CC3COCc4ccccc43)CC2)c1C` (centres unmarked) [Example 57, 1-(2,3-dimethylphenyl)-4-(isochroman-4-ylmethyl)piperazine], the IC50 in experiment [1] was 100 nM. The inhibition at 10 µM in experiment [2] came out at 83%.

Regarding `Clc1cccc(N2CCN(Cn3c(COc4ccccc4)nc4ccccc43)CC2)c1` [Example 61, 1-((4-(3-chlorophenyl)piperazin-1-yl)methyl)-2-(phenoxymethyl)-1H-benzo[d]imidazole], the IC50 in experiment [1] is 200 nM. Also, the inhibition at 10 µM in experiment [2] turned out to be 8%.

As to `O=C1CCC(c2ccc(F)cc2)=NN1CN1CCN(c2cccc(Cl)c2)CC1` [Example 62, 2-((4-(3-chlorophenyl)piperazin-1-yl)methyl)-6-(4-fluorophenyl)-4,5-dihydropyridazin-3(2H)-one], the IC50 in experiment [1] came to 50 nM; in experiment [2] it was 5270 nM.

On to `O=C1c2ccccc2CCN1CCN1CCN(c2ccccc2)CC1` [Example 63, 2-(2-(4-phenylpiperazin-1-yl)ethyl)-3,4-dihydroisoquinolin-1(2H)-one], for which the IC50 in experiment [1] was 450 nM. Also, the inhibition at 1 µM in experiment [2] amounted to 16%.

In the case of `Clc1cccc(N2CCN(CCc3ccccc3)CC2)c1` [Example 64, 1-(3-chlorophenyl)-4-phenethylpiperazine], in experiment [1], the concentration for half-maximal inhibition (IC50) was 40 nM. In addition, the inhibition at 10 µM in experiment [2] was 93%.

For the compound `O=C(CN1CCN(c2cccc(Cl)c2)CC1)c1ccccc1` [Example 66, 2-(4-(3-chlorophenyl)piperazin-1-yl)-1-phenylethan-1-one], the IC50 in experiment [1] was determined as 890 nM. Also, in experiment [2], the inhibition at 10 µM turned out to be 55%.

With `N#Cc1ccc(OCCN2CCN(c3nsc4ccccc34)CC2)cc1` [Example 67, 4-(2-(4-(benzo[d]isothiazol-3-yl)piperazin-1-yl)ethoxy)benzomtnle], in experiment [1], the 50% inhibitory concentration (IC50) was found to be 10 nM. The inhibition at 10 µM in experiment [2] was 85%.

As to `COc1cccc(OCCN2CCN(c3nsc4ccccc34)CC2)c1` [Example 68, 3-(4-(2-(3-methoxyphenoxy)ethyl)piperazin-1-yl)benzo[d]isothiazole], the values for the IC50 in experiment [1] and in experiment [2] were 4 nM and 730 nM, respectively.

Take `Clc1ccccc1OCCN1CCN(c2nsc3ccccc23)CC1` [Example 69, 3-(4-(2-(2-chlorophenoxy)ethyl)piperazin-1-yl)benzo[d]isothiazole]: the IC50 in experiment [1] is 3 nM. Further, the inhibition at 10 µM in experiment [2] was 91%.

On to `c1ccc(OCCN2CCN(c3nsc4ccccc34)CC2)cc1` [Example 70, 3-(4-(2-phenoxyethyl)piperazin-1-yl)benzo[d]isothiazole], for which the IC50 in experiment [1] stood at 4 nM; in experiment [2], 1700 nM.

As to `Fc1ccc(OCCCN2CCN(c3nsc4ccccc34)CC2)cc1` [Example 73, 3-(4-(3-(4-fluorophenoxy)propyl)piperazin-1-yl)benzo[d]isothiazole], in experiment [1], the IC50 amounted to 2 nM. Further, in experiment [2], the inhibition at 10 µM came to 91%.

For the compound `OC(COC1CCCCC1)CN1CCN(c2ccccc2)CC1` (centres unmarked) [Example 74, 1-(cyclohexyloxy)-3-(4-phenylpiperazin-1-yl)propan-2-ol], the 50% inhibitory concentration (IC50) in experiment [1] was 60 nM; in experiment [2], 50800 nM.
